These are literature values, as cited in patent US20130337054A1, “TREATMENT OF EXCESSIVE MENSTRUAL BLOOD LOSS BY INTRAVAGINAL ADMINISTRATION OF LOW DOSES OF ANTIFIBRINOLYTIC OR HEMOSTATIC AGENT” (ARSTAT Inc., priority 2011, published 2013).

Series [1] concerns menorrhagia (menstrual blood loss). To be noted: oral; cited from earlier work.
In series [2] the test system is postoperative bleeding complications. The settings on record: mouthwash, compared to placebo; cited from earlier work.
The conditions of series [3]: cited from earlier work.
The test system of the next series is menorrhagia. The settings on record: oral, cited from earlier work.
For a further series, the system named is postoperative blood loss. The settings on record: cited from earlier work.

Consider `NC[C@H]1CC[C@H](C(=O)O)CC1` [tranexamic acid], for which the “difference versus placebo in reduction of large stains, small and large clots and changes in serum ferritin levels” value in series [1] was “no statistically significant differences”. In addition, in series [2], the “incidence of postoperative bleeding complications” value was “reduce the incidence”. In series [3] (after a mouth rinse), the plasma concentration entry is “below 2 mcg/mL”; the “saliva concentration, maximum level” value was “above 200 mcg/mL”; the “time saliva concentration remained at a therapeutic level” value was “more than two”. In series [3] (after an oral tablet), the “drug in saliva samples” value was “not detected” and the “mean drug plasma concentration” value is 7000 ng/mL. The “risk of gastrointestinal adverse events” value in the series on menorrhagia (6 g/day) is “increased”. Moreover, in the series on menorrhagia (EMEA 2000), the “efficacy in relation to dose” value is listed as “dose-dependent increase in efficacy”.
Turning to aprotinin, the plasma drug levels entry in the series with postoperative blood loss (in vivo) is reported as “without detectable plasma drug levels”. For the same compound, in the series with postoperative blood loss (locally administered), the postoperative blood loss entry is on record as “Reduction”.
